Experimental data reported in US20250026766A1, “Thiazolopyridyl Amide Derivatives as DNA Polymerase Theta Inhibitors” (BeiGene, Ltd., priority 2022, published 2025).

Target: Pol Theta (1-894) (Homo sapiens (Human), UniProt O75417)
Assay: Biochemical Pol Theta (1-894) ATPase IC50 assay (ADP-Glo, ssDNA substrate)
Details: ADP-Glo assay with ssDNA substrate, room temperature
Summary of the method: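 His-tagged human Pol Theta 1-894 from Sf9 baculovirus cells, 2× enzyme solution at 12.5 nM, assayed with ssDNA substrate at room temperature in 40 mM Tris pH 7.5, 20 mM MgCl2, 1 mM DTT, 0.01% BSA, 0.05% Tween-20.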

Pol Theta (1-894), sequence (O75417 1-894): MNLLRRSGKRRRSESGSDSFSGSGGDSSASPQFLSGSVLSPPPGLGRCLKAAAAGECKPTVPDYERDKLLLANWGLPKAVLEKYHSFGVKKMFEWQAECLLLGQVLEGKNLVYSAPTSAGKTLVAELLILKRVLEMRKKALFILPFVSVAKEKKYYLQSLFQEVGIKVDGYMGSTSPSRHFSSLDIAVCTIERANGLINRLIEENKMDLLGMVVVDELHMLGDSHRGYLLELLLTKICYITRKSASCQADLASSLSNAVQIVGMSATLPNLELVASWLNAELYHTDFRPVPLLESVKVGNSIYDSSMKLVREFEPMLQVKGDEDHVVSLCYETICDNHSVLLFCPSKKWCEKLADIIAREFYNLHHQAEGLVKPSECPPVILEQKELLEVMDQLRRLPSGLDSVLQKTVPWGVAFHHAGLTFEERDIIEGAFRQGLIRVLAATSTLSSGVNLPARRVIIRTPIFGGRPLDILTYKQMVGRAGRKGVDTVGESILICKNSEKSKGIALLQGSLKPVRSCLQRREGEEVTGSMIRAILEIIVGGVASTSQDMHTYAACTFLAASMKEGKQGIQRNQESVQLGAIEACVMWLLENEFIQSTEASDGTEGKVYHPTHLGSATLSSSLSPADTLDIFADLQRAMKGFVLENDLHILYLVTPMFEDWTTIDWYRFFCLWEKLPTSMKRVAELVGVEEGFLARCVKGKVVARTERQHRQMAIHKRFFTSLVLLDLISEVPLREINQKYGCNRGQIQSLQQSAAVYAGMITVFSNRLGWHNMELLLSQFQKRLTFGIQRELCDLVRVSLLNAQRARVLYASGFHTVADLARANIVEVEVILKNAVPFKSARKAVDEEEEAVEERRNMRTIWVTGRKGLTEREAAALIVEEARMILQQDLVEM

| Compound | IC50 |
| --- | --- |
| COc1c(C#N)cccc1-c1cc(C)ncc1C(=O)Nc1nc2ccc(-c3ccc(C#N)cc3)nc2s1 [Example 82, 4-(3-cyano-2-methoxyphenyl)-N-(5-(4-cyanophenyl)thiazolo[5,4-b]pyridin-2-yl)-6-methylnicotinamide] | 272 nM |
| COc1ccccc1-c1cc(C#N)ncc1C(=O)Nc1nc2ccc(-c3ccc(NC(C)=O)cc3)nc2s1 [Example 27, N-(5-(4-acetamidophenyl)thiazolo[5,4-b]pyridin-2-yl)-6-cyano-4-(2-methoxyphenyl)nicotinamide] | 67 nM |
| COc1ccccc1-c1cnncc1C(=O)Nc1nc2ccc(CCc3ccc(Cl)cc3)nc2s1 [Example 62, N-(5-(4-chlorophenethyl)thiazolo[5,4-b]pyridin-2-yl)-5-(2-methoxyphenyl)pyridazine-4-carboxamide] | 24 nM |
| COc1ccc(C#N)cc1-c1cc(C)ncc1C(=O)Nc1nc2ccc(-c3ccc(N(C)S(C)(=O)=O)cc3)nc2s1 [Example 32, 4-(5-cyano-2-methoxyphenyl)-6-methyl-N-(5-(4-(N-methylmethylsulfonamido)phenyl)thiazolo[5,4-b]pyridin-2-yl)nicotinamide] | 26 nM |
| COc1ccccc1-c1cnncc1C(=O)Nc1nc2ccc(OC3CCCC3)nc2s1 [Example 114, N-(5-(cyclopentyloxy)thiazolo[5,4-b]pyridin-2-yl)-5-(2-methoxyphenyl)pyridazine-4-carboxamide] | 99 nM |
| COc1ccc([N+](=O)[O-])cc1-c1ccncc1C(=O)Nc1nc2ccc(-c3ccc(C#N)cc3)nc2s1 [Example 156, N-(5-(4-cyanophenyl)thiazolo[5,4-b]pyridin-2-yl)-4-(2-methoxy-5-nitrophenyl)nicotinamide] | 14 nM |
| COc1ccc(C#N)cc1-c1cc(C)ncc1C(=O)Nc1nc2ccc(-c3ccc(C(=O)N4CCCC4)cc3)nc2s1 [Example 85, 4-(5-cyano-2-methoxyphenyl)-6-methyl-N-(5-(4-(pyrrolidine-1-carbonyl)phenyl)thiazolo[5,4-b]pyridin-2-yl)nicotinamide] | 62 nM |
| COc1ccccc1-c1cnncc1C(=O)Nc1nc2ccc(-c3ccc(C(=O)NC(C)C)cc3)nc2s1 [Example 102, N-(5-(4-(isopropylcarbamoyl)phenyl)thiazolo[5,4-b]pyridin-2-yl)-5-(2-methoxyphenyl)pyridazine-4-carboxamide] | 63 nM |
| COc1ccc(C#N)cc1-c1cc(C)ncc1C(=O)Nc1nc2ccc(-c3ccc(C(N)=O)c(C)c3)nc2s1 [Example 110, N-(5-(4-carbamoyl-3-methylphenyl)thiazolo[5,4-b]pyridin-2-yl)-4-(5-cyano-2-methoxyphenyl)-6-methylnicotinamide] | 5.8 nM |
| COc1ccccc1-c1cnncc1C(=O)Nc1nc2ccc(-c3ccc(Cl)cc3C(F)(F)F)nc2s1 [Example 99, N-(5-(4-chloro-2-(trifluoromethyl)phenyl)thiazolo[5,4-b]pyridin-2-yl)-5-(2-methoxyphenyl)pyridazine-4-carboxamide] | 66 nM |
| COc1ccccc1-c1cnncc1C(=O)Nc1nc2ccc(C(C)c3ccc(Cl)cc3)nc2s1 (stereo not shown) [Example 138, N-(5-(1-(4-chlorophenyl)ethyl)thiazolo[5,4-b]pyridin-2-yl)-5-(2-methoxyphenyl)pyridazine-4-carboxamide] | 263 nM |
| COc1ccc(C#N)cc1-c1cc(C)ncc1C(=O)Nc1nc2ccc(-c3ccc(N4CCCS4(=O)=O)cc3)nc2s1 [Example 135, 4-(5-cyano-2-methoxyphenyl)-N-(5-(4-(1,1-dioxidoisothiazolidin-2-yl)phenyl)thiazolo[5,4-b]pyridin-2-yl)-6-methylnicotinamide] | 23 nM |
| COc1ccccc1-c1cnncc1C(=O)Nc1nc2ccc(C#Cc3ccc(Cl)cc3)nc2s1 [Example 63, N-(5-((4-chlorophenyl)ethynyl)thiazolo[5,4-b]pyridin-2-yl)-5-(2-methoxyphenyl)pyridazine-4-carboxamide] | 31 nM |
| COc1ccccc1-c1cnncc1C(=O)Nc1nc2ccc(-c3ccc(C#N)cc3)nc2s1 [Example 83, N-(5-(4-cyanophenyl)thiazolo[5,4-b]pyridin-2-yl)-5-(2-methoxyphenyl)pyridazine-4-carboxamide] | 6.2 nM |

Next, values leading:

| IC50 | Compound |
| --- | --- |
| 57 nM | COc1ccc(C#N)cc1-c1cc(C)ncc1C(=O)Nc1nc2ccc(-c3ccc(C4(C#N)CC4)cc3)nc2s1 [Example 29, 4-(5-cyano-2-methoxyphenyl)-N-(5-(4-(1-cyanocyclopropyl)phenyl)thiazolo[5,4-b]pyridin-2-yl)-6-methylnicotinamide] |
| 25 nM | COc1ccccc1-c1cnncc1C(=O)Nc1nc2ccc(-c3ccc(Cl)c4c3cnn4C)nc2s1 [Example 125, N-(5-(7-chloro-1-methyl-1H-indazol-4-yl)thiazolo[5,4-b]pyridin-2-yl)-5-(2-methoxyphenyl)pyridazine-4-carboxamide] |
| 43 nM | COc1ccccc1-c1cnncc1C(=O)Nc1nc2ccc(-c3c(C)cc(Cl)cc3Cl)nc2s1 [Example 150, N-(5-(2,4-dichloro-6-methylphenyl)thiazolo[5,4-b]pyridin-2-yl)-5-(2-methoxyphenyl)pyridazine-4-carboxamide] |
| 20 nM | COc1ccccc1-c1cnncc1C(=O)Nc1nc2ccc(-c3ccc(Cl)cc3)nc2s1 [Example 9, N-(5-(4-chlorophenyl)thiazolo[5,4-b]pyridin-2-yl)-5-(2-methoxyphenyl)pyridazine-4-carboxamide] |
| 4.4 nM | COc1ccc(C#N)cc1-c1cc(C)ncc1C(=O)Nc1nc2ccc(-c3ccc(CC#N)cn3)nc2s1 [Example 168, 4-(5-cyano-2-methoxyphenyl)-N-(5-(5-(cyanomethyl)pyridin-2-yl)thiazolo[5,4-b]pyridin-2-yl)-6-methylnicotinamide] |
| 70 nM | COc1cccc(F)c1-c1cnccc1C(=O)Nc1nc2ccc(-c3ccc(NC(C)=O)cc3)nc2s1 [Example 31, N-(5-(4-acetamidophenyl)thiazolo[5,4-b]pyridin-2-yl)-3-(2-fluoro-6-methoxyphenyl)isonicotinamide] |
| 4.9 nM | COc1ccccc1-c1cnncc1C(=O)Nc1nc2ccc(-c3ccc(C#N)cc3C)nc2s1 [Example 121, N-(5-(4-cyano-2-methylphenyl)thiazolo[5,4-b]pyridin-2-yl)-5-(2-methoxyphenyl)pyridazine-4-carboxamide] |
| 75 nM | COc1ccc(C#N)cc1-c1cc(C)ncc1C(=O)Nc1nc2ccc(-c3ccc(N4CCOC4=O)cc3)nc2s1 [Example 43, 4-(5-cyano-2-methoxyphenyl)-6-methyl-N-(5-(4-(2-oxooxazolidin-3-yl)phenyl)thiazolo[5,4-b]pyridin-2-yl)nicotinamide] |
| 8.4 nM | COc1ccccc1-c1cnncc1C(=O)Nc1nc2ccc(-c3c(C)cc(C#N)cc3C)nc2s1 [Example 148, N-(5-(4-cyano-2,6-dimethylphenyl)thiazolo[5,4-b]pyridin-2-yl)-5-(2-methoxyphenyl)pyridazine-4-carboxamide] |
| 64 nM | COc1ccc(C#N)cc1-c1cc(C)ncc1C(=O)Nc1nc2ccc(C3CCOCC3)nc2s1 [Example 67, 4-(5-cyano-2-methoxyphenyl)-6-methyl-N-(5-(tetrahydro-2H-pyran-4-yl)thiazolo[5,4-b]pyridin-2-yl)nicotinamide] |
| 11 nM | COc1ccccc1-c1cnncc1C(=O)Nc1nc2ccc(-c3ccc(C#N)nc3)nc2s1 [Example 144, N-(5-(6-cyanopyridin-3-yl)thiazolo[5,4-b]pyridin-2-yl)-5-(2-methoxyphenyl)pyridazine-4-carboxamide] |
